Experimental data reported in the supplement of paper PMC11997997.

Experiments:
[1] = test system: murine bone marrow-derived macrophages; test: area under cytotoxicity dose-response curve (AUC (% cytotoxicity x dose, relative)); higher = more cytotoxic; conditions: duration: 6 days; dose range: 0.13-80 uM, 8 points
How it was run: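 Using opaque 384-well plates, primary murine bone marrow-derived macrophages were treated for 6 days at 37 °C in 5% CO2 with an 8-point, 2.5-fold dilution series spanning final concentrations of 80–0.13 μM. After CellTiter-Glo (Promega) luminescence readout of viability, percent cytotoxicity was normalised to vehicle and positive control wells. The reported value is the area under the dose–response curve for cytotoxicity, derived in GraphPad Prism version 10.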

[2] = test system: Mycobacterium tuberculosis CDC1551 (intracellular, in murine BMDM); test: area under intracellular growth-inhibition dose-response curve (AUC (% inhibition x dose, relative)); higher = more potent; conditions: duration: 6 days; dose range: 0.13-80 uM, 8 points
How it was run: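 Primary murine bone marrow-derived macrophages in 384-well opaque plates were infected 24 h after seeding with luciferase-expressing M. tuberculosis CDC1551 at multiplicity of infection 1 for 1 h. They were then treated with an 8-dose, 2.5-fold series (final 80–0.13 μM) for 6 days. Growth was read by Bright-Glo luciferin assay and normalised to a reference drug control and the lowest-concentration wells. The value is the area under the growth-inhibition dose–response curve, calculated in GraphPad Prism.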

Row | Compound | area under cytotoxicity dose-response curve [1] | area under intracellular growth-inhibition dose-response curve [2]
1 | NNC(=O)c1ccncc1 | < 0 | 272
2 | COc1ccc(OCC(=O)NC(=S)Nc2ccc(N3CCOCC3)c(Cl)c2)cc1 | 123 | 173
3 | C=CCNc1nc(C(=O)OCC(=O)NCc2cccc(Cl)c2)cs1 | 96 | < 0
4 | O=c1c2ccsc2ncn1Cc1ccc(Cl)cc1 | 15 | 120
5 | Cn1nc(C(=O)OCC(=O)NCc2ccc(Cl)cc2)c2ccccc2c1=O | 4.5 | 83
6 | O=[N+]([O-])c1ccc(CN2CCN(c3ccc(F)cc3)CC2)o1 | < 0 | 245
7 | Nc1ccc(C(=O)O)c(O)c1 | 62.3 | 182
8 | O=C(C=Cc1cccc(Cl)c1)c1ccccc1 | 6.7 | 252
9 | Cc1ccc(C(=O)NCc2ccc(Cl)cc2)o1 | 15.1 | 263
10 | CCC(=O)NC(=S)Nc1ccc(NC(=S)NC(=O)c2ccc(C)cc2)cc1 | 11.9 | 265
11 | CC(C)(C)C(=O)/C(=C/c1cccc([N+](=O)[O-])c1)n1cncn1 | 157 | 8.55
12 | CC(NC(=O)c1cc2ccccc2o1)c1cccs1 (stereo not given) | < 0 | 257
13 | O=C(NC1CCCCCC1)c1cccs1 | < 0 | 243
14 | COc1ccc(/C=N/NC(=O)c2ccncc2)cc1COc1ccc(NC(C)=O)cc1 | 14.4 | 272
15 | Cc1cc(NS(=O)(=O)c2ccc(NC(=S)Nc3ccc(Cl)cc3C)cc2)no1 | 7.59 | 102
16 | CN1CCN2c3ccccc3Cc3ccccc3C2C1.Cl (stereo not given) | < 0 | 118
17 | Cc1ccc2nc(C)c3c(c2c1)SCC3 | 24.5 | 79.5
18 | O=C(N/N=C/c1c(F)c(F)c(F)c(F)c1F)c1cccc(S(=O)(=O)N2CCOCC2)c1 | 128 | 45.4
19 | CCOc1cc(/C=N\Nc2nc(-c3ccc(C)cc3)c(NC(C)=O)s2)ccc1O | < 0 | 256
20 | C=CCNC(=S)NNC(=O)CC12CC3CC(CC(C3)C1)C2 | 8.72 | 222

Row | Compound | area under cytotoxicity dose-response curve [1] | area under intracellular growth-inhibition dose-response curve [2]
21 | O=C(COC(=O)CCCOc1ccc(Cl)cc1Cl)NCc1ccc(F)cc1 | 40.6 | 9.47
22 | Cc1nnc(SCC2=C(C(=O)O)N3C(=O)C(NC(=O)COc4ccccc4)C3SC2)s1 (stereo not given) | 73.9 | 151
23 | CC(NC(=O)c1ccccc1F)c1ccccc1 (stereo not given) | 53.4 | 95.2
24 | COc1ccccc1C(CNC(=O)CN1C(=O)NC(C)(c2ccc3ccccc3c2)C1=O)N1CCCC1 (stereo not given) | 44.4 | 93.4
25 | CC[C@@H](C)[C@@H]1CN([C@@H](C)CN2CCC[C@H]2CN2C(N)=NC[C@@H]2Cc2ccccc2)C(=N)N1CCc1ccc(Cl)c(Cl)c1 | < 0 | 167
26 | CCN1C(=O)C(O)(C2COC(C)(C)CC2=O)c2ccccc21 (stereo not given) | 41 | 31.5
27 | CCC(CO)NCCNC(CC)CO (stereo not given) | 88.1 | 154
28 | CC1CCN(C(=O)COc2ccccc2F)CC1 | 50.5 | 214
29 | CCOC(=O)/C=C/C(=O)Nc1ccc(-c2nnc3n2CCCCC3)cc1 | 34.8 | 131
30 | CCOC(=O)c1oc2nc(C(C)C)c3c(c2c1N)CC(C)(C)OC3 | 80.3 | 124
31 | C=C1C(=O)O[C@@H]2C[C@@H](C)[C@@H]3C=CC(=O)[C@@]3(C)[C@@H](OC(=O)CC(=O)O[C@H]3[C@@H]4C(=C)C(=O)O[C@@H]4C[C@@H](C)[C@@H]4C=CC(=O)[C@]43C)[C@H]12 | 35 | 87.6
32 | O=C(NCCc1ccc(F)cc1)NC12CC3CC(CC(C3)C1)C2 | 60.1 | 190
33 | O.Sc1[nH]cnc2ncnc1-2 | < 0 | 140
34 | Clc1ccc(-c2nnc(C3CCCCC3)o2)cc1 | < 0 | 212
35 | NC(=S)N/N=C/c1ccc2c(c1)OCCO2 | < 0 | 263
36 | CCC(C)N1CCC2(CC1)N=c1c3c(O)c4c(O)c(C)c5c(c4c1=N2)C(=O)[C@@](C)(OC=C[C@H](OC)[C@@H](C)[C@@H](OC(C)=O)[C@H](C)[C@H](O)[C@H](C)[C@@H](O)[C@@H](C)C=CC=C(C)C(=O)N3)O5 (stereo not given in full) | 86.3 | 253
37 | O=C(N/N=C/c1ccc(OCc2cnc(Cl)s2)cc1)c1ccncc1 | 48.7 | 238
38 | COc1ccc(NS(=O)(=O)c2cccc(N3CC(=O)C(c4ccccc4)=C3N)c2)cc1 | 45.7 | 43.8
39 | C/C(=N\NC(=O)c1ccncc1)c1cccnc1 | 90.7 | 129
40 | C/C(CC(=O)Nc1ccc(Cl)cc1Cl)=N\NC(=O)c1ccncc1 | 46.2 | 270
